Two compounds from patent US7776885B2, “Benzimidazolone compounds having 5-HT4 receptor agonistic activity” (Pfizer, Inc., priority 2003, dated 2010) can be followed below.

Data set [1] deals with T1, 5-HT4 receptors in the rat oesophagus (Rattus norvegicus, UniProt Q62758).
T1 construct: The remaining inner tube of smooth muscle was known as the TMM; from tissue; host or cells: rat oesophagus tunica muscularis mucosae (TMM), male SD rats (Charles River)
The experiment in a line: Functional assay in rat oesophagus TMM preparation (relaxation of carbachol-contracted tissue). Conditions: 1 μM antagonist added to bath. The text has this: More specifically, partial agonist activity can be measured according to the following procedures.
Male SD rats (Charles River) weighing 250-350 g were stunned and then killed by cervical dislocation. The oesophagus was dissected from immediately proximal to the stomach (including piece of stomach to mark distal end) up to the level of the trachea and then placed in fresh Krebs' solution.
The outer skeletal muscle layer was removed in one go by peeling it away from the underlying smooth muscle layer using forceps (stomach to tracheal direction). The remaining inner tube of smooth muscle was known as the TMM. This was trimmed to 2 cm from the original ‘stomach-end’ and the rest discarded.
The TMMs were mounted as whole ‘open’ tubes in longitudinal orientation in 5 ml organ baths filled with warm (32° C.) aerated Krebs. Tissues were placed under an initial tension of 750 mg and allowed to equilibrate for 60 minutes. The tissues were re-tensioned twice at 15 minute intervals during the equilibration period. The pump flow rate was set to 2 ml/min during this time.
Following equilibration, the pump was switched off. The tissues were exposed to 1 μM carbachol and contracted and reached a steady contractile plateau within 15 minutes. Tissues were then subject to 1 μM 5-HT (this was to prime the tissues). The tissues relaxed in response to 5-HT fairly rapidly—within 1 minute. […]

Molecules are shown by their SMILES. Where a name gives a salt, the structure may show the parent alone.

T1 sequence (Q62758 whole entry): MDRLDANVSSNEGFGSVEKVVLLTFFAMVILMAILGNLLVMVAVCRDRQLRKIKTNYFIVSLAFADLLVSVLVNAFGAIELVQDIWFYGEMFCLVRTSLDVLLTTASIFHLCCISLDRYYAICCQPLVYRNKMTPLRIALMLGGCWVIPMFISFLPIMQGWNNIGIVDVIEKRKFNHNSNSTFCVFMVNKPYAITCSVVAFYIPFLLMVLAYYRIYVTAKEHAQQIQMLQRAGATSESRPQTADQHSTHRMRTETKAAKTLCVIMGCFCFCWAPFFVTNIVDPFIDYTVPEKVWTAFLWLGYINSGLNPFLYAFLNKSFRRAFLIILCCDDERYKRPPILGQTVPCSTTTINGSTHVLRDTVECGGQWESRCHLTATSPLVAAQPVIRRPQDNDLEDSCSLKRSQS

Compound `CC(C)n1c(=O)n(C(=O)NCC2CCN(CC(=O)N3CCOCC3)CC2)c2ccccc21` (as salt: oxalate) had a melting point of 194.2 °C.
Turning to `O=C(OCCN1CCCCC1)c1c[nH]c2ccccc12` [SB 203,186, 1H-Indole-3-carboxylic acid, 2-(1-piperidinyl)ethyl ester], the “reversal of 5-HT induced relaxation” value in data set [1] is on record as “reversed 5-HT induced relaxation”.
